Experimental data as given in patent publication US5854004A, “Process for screening substances capable of modulating a receptor-dependent cellular signal transmission path” (Boehringer Ingleheim GmbH, priority 1991, dated 1998).
Where no end group is shown, it is not given here.

Experiments:
[1] = molecular target: T1, human neurokinin 2-receptor (Homo sapiens, UniProt P21452); experiment: Luciferase activity in NK2-test cell line A20/NK2-122
T1 sequence (P21452 1-398): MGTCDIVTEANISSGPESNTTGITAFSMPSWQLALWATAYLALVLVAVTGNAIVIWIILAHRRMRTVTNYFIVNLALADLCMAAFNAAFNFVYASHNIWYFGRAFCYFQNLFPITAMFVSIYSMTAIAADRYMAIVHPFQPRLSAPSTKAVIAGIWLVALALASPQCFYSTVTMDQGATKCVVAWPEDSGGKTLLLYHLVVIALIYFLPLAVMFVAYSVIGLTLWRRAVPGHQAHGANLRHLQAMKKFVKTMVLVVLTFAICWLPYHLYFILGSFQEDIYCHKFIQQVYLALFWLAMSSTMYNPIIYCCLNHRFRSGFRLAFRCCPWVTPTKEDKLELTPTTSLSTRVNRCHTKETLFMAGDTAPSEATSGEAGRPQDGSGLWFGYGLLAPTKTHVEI
Protocol: (§1) 15-20 days after transfection, individual cell clones were transferred into 96-well microtitre plates and further cultivated. […] Approximately 40,000 cells in each clone were sown, in a procedure repeated 6 times, in 200 μl per well of a light-impervious 96-well microtitre plate coated with tissue culture (Microlite™, Dynatech Laboratories) and incubated overnight at 37° C. Three mixtures were treated with 10 ng TPA/ml and incubated for a further 8 hours. Then the medium was removed and the cells were washed twice with PBS.
This Example illustrates the preparation of a test cell line for the human neurokinin 2 (NK2)-receptor which is coupled to the phospholipase C-signal transduction pathway. This test cell line makes it possible, by measurement of the luciferase activity, to identify substances which modulate the intracellular IP3 /DAG concentrations, depending on the receptor.
(§2) The pretest cell line A20 was transfected, as described under a), by electroporation with the plasmid pAHyg-NK2, which had previously been linearised with BglII. From the day after transfection onwards, the cells were grown in selection medium, as used for the cell line A20 and additionally enriched with 150 μg/ml hygromycin B (Sigma). Individual clones were tested for inducibility of the luciferase activity as described under a).

[2] = system: cell line CHO C6-13; experiment: Luciferase expression in CRE-pretest cell line CHO C6-13; settings: for change in luciferase expression/activity: 3 hours treatment, FIG. 33
Protocol: The transfection by electroporation was carried out as follows: after removal of the medium the cells were detached from the surface by means of a trypsin/PBS solution, suspended in medium and pelleted for 5 minutes at 250×g. The cells were washed in HBS (10 mM HEPES pH 7.4, 150 mM NaCl) and pelleted by centrifuging. The cells were suspended in HBS in a density of 1×10^7 cells/ml. 0.8 ml of cell suspension were mixed with 20 μg of DNA of the plasmid pADneo2-C6-BGL linearised with ScaI and transferred into an electroporation dish. […] After the electroporation the cells were diluted in the medium mentioned above, 20,000 cells per 90 mm culture dish was sown and incubated overnight at 37° C.
Two batches of each were treated with 20 μM forskolin and incubated for a further 5 hours at 37° C. Then the medium was removed from all the cells and the cells were washed with PBS.
Cells of the cell line CHO C6-13 were treated for 3 hours with various substances which alter the intracellular concentration of cAMP or IP3 /DAG or simulate a change in concentration, and also treated with receptor-specific agonists which influence the above-mentioned signal transduction mechanisms.

[3] = molecular target: luciferase (Photinus pyralis, UniProt P08659); experiment: Effect of reagent component concentration on luciferase measuring signal; format: biochemical
Protocol: The effect of varying the concentration of ATP, luciferin, MgSO4. 7H2 O, dithiothreitol (DDT), β-mercaptoethanol (BME), sodium tripolyphosphate (NaTPP), Triton X-100 and the pH on the luciferase measuring signal obtained was determined (Table 2). The measurements obtained 3 minutes after the addition of the reagent were used for comparison (given as percentage of the maximum measuring signal obtained).

[4] = molecular target: T2, human dopamine D1-receptor (Homo sapiens, UniProt P21728); experiment: Induction of pADneo2-C6-BGL (CRE) via dopamine-D1-receptor in co-transfected COS-7 cells; settings: 1 μM apomorphine and 1 μM SCH23390
[5] = molecular target: T2, human dopamine D1-receptor; experiment: Luciferase activity in dopamine D1-receptor test cell line CHO 13D1-38
Protocol: The cell line CHO C6-13 characterised above was transfected, as described under a), by electroporation with plasmid pAD-CMV2:D1, which had previously been linearised with FspI.
For the use of test cell lines in an automatic screening system with a high throughput rate it is advantageous to use microtitre plates having 96 wells per plate. For this purpose, 60,000 cells (CHO C6-13 or CHO 13D1-38) were sown in 200 μl medium per well in light-impermeable microtitre plates coated with tissue culture
(Microlite™, Dynatech Labroatories) and incubated overnight at 37° C. Then various chemicals were added to the cells and they were incubated for a certain length of time (usually 3 hours). After removal of the medium the cells were washed with PBS, lysed in 1% Triton X-100 and the luciferase activity was measured in a 96-well luminometer (ML-1000, Dynatech) (FIG. 36).
In order to simulate a screening process in which the test substances are preferably supplied in a uniform solvent, a final concentration of 1% DMSO was used in this experiment.

[6] = system: cell line A20; experiment: Luciferase induction in stable TRE-pretest cell line A20 (A549, pBHluc1.3); settings: A20, no receptor DNA
Protocol: In order to produce a stable (pre-)test cell line for substances which influence the expression of the luciferase gene by direct or receptor-mediated modulation of the IP3 /DAC-signal transduction pathway, A549 cells were simultaneously transfected with the plasmid pBHluc1.3 and the selection plasmid pRSVneo by electroporation as follows: after removal of the medium the cells were detached from the surface by means of a trypsin/PBS solution, suspended in medium and sedimented for 5 minutes at 250×g. […] 0.8 ml of cell suspension were combined with 20 μg of pBHluc1.3 and 2 μg of pRSVneo. Both plasmids had previously been linearised with BamHI.
as §1, §2

[7] = molecular target: human 5HT2-receptor (Homo sapiens, UniProt P28223); experiment: cell-based
Text: The human 5HT2-receptor is another example of a receptor coupled to the phospholipase C-signal transduction pathway. The TRE-cell line A20 is therefore also suitable in this case as a starting cell line for establishing a test cell line in order to discover substances which modulate the activity of the 5HT2-receptor.
The plasmid pAHyg-5HT2, linearised with BglII, was for this purpose transfected into the cell line A20 by electroporation as described under a) and grown in selection medium.
For this purpose the cells were simultaneously treated with a constant amount of serotonin (1 μg) and increasing amounts of antagonist.

human 5HT2-receptor, sequence (P28223 whole entry): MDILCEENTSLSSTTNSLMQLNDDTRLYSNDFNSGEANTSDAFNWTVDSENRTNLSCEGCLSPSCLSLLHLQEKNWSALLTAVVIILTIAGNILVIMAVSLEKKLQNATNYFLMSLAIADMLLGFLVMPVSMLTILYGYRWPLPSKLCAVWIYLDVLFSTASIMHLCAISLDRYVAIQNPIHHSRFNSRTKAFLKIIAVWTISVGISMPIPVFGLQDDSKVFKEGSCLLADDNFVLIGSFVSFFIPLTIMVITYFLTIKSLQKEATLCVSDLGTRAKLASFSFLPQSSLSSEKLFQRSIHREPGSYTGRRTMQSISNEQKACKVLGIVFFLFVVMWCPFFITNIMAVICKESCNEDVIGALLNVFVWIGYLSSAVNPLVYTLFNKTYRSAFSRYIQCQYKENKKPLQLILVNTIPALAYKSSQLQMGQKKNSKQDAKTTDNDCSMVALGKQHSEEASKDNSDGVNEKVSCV
luciferase, sequence (P08659 whole entry): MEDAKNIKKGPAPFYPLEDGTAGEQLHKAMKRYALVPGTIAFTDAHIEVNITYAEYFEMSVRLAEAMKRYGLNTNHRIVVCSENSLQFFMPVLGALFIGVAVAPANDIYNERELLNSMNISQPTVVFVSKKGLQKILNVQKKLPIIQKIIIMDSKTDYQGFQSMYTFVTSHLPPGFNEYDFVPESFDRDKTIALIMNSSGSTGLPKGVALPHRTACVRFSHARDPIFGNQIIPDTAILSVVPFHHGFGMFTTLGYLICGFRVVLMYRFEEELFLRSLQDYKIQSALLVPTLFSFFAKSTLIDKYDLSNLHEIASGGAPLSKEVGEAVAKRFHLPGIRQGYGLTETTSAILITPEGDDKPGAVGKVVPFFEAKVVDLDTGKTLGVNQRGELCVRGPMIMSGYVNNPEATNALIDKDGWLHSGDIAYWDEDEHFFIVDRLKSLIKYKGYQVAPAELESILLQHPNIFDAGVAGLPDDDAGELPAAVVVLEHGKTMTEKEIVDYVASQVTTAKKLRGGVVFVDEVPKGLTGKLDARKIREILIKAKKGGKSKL
T2 sequence (P21728 whole entry): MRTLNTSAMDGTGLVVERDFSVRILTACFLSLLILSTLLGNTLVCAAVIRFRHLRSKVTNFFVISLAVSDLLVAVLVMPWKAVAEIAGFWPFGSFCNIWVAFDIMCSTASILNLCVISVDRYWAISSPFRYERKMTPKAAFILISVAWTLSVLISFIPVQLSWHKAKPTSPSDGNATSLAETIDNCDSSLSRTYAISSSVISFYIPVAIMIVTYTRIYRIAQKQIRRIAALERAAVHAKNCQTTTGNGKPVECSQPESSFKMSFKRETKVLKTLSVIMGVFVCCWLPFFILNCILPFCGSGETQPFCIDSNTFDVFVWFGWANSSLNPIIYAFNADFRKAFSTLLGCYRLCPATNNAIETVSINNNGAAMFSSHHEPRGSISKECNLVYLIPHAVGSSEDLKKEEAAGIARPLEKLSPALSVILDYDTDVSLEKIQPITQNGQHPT

COc1ccccc1CN[C@H]1C2CCN(CC2)[C@H]1C(c1ccccc1)c1ccccc1 (relative stereo) [BIBO 2020, ±cis-3-(2-methoxybenzylamino)-2-benzhydrylquinulidine]
inhibition of the agonistic effect of neurokinin A [1]: effective at higher concentrations (P7492>BIBO 2020>H-9290)

CNc1ccc2oc(C[C@H]3O[C@@]4(CC[C@H]3C)O[C@H]([C@H](C)C(=O)c3ccc[nH]3)[C@H](C)C[C@H]4C)nc2c1C(=O)O [A23187]
change in luciferase expression/activity [2]: did not bring about any significant change in the luciferase activity

Nc1ncnc2c1ncn2[C@@H]1O[C@H](COP(=O)(O)OP(=O)(O)OP(=O)(O)O)[C@@H](O)[C@H]1O [ATP, adenosine triphosphate]
% max. signal (luciferase) ([3]; ATP 0.06 g/l): 61% | % max. signal (luciferase) ([3]; ATP 0.13 g/l): 95% | % max. signal (luciferase) ([3]; ATP 0.29 g/l): 100% | % max. signal (luciferase) ([3]; ATP 0.65 g/l): 98% | % max. signal (luciferase) ([3]; ATP 1.47 g/l): 83% | % max. signal (luciferase) ([3]; ATP 3.30 g/l): 78%

OCCS [BME, β-mercaptoethanol]
max. signal (luciferase) ([3]; BME 0.59 ml/l): 80% | max. signal (luciferase) ([3]; BME 0.88 ml/l): 82% | max. signal (luciferase) ([3]; BME 1.32 ml/l): 68% | max. signal (luciferase) ([3]; BME 1.98 ml/l): 84% | max. signal (luciferase) ([3]; BME 2.96 ml/l): 86% | max. signal (luciferase) ([3]; BME 4.44 ml/l): 100% | max. signal (luciferase) ([3]; BME 6.67 ml/l): 94% | max. signal (luciferase) ([3]; BME 10.0 ml/l): 93%

CC(C)Cn1c(=O)n(C)c(=O)c2[nH]cnc21 [IBMX, isobutylmethylxanthine]
change in luciferase expression/activity [2]: increased | shift in the forskolin dosage-activity curve to lower forskolin concentrations ([2]; with IBMX): one order of magnitude | influence on maximum induction of the luciferase reporter gene ([2]; with forskolin): not significantly influenced

O=C(O)[C@H]1CSC(c2nc3ccc(O)cc3s2)=N1 [Lucifenn]
% max. signal (luciferase) ([3]; luciferin 1.32 mg/l): 42% | % max. signal (luciferase) ([3]; luciferin 1.98 mg/l): 58% | % max. signal (luciferase) ([3]; luciferin 2.96 mg/l): 65% | % max. signal (luciferase) ([3]; luciferin 4.44 mg/l): 75% | % max. signal (luciferase) ([3]; luciferin 6.67 mg/l): 88% | % max. signal (luciferase) ([3]; luciferin 10.0 mg/l): 95% | % max. signal (luciferase) ([3]; luciferin 15.0 mg/l): 100%

O.O.O.O.O.O.O.O=S(=O)([O-])[O-].[Mg+2] [MgSO4, magnesium sulphate-heptahydrate]
% max. signal (luciferase) ([3]; MgSO4 0.35 g/l): 20% | % max. signal (luciferase) ([3]; MgSO4 0.53 g/l): 48% | % max. signal (luciferase) ([3]; MgSO4 0.79 g/l): 64% | % max. signal (luciferase) ([3]; MgSO4 1.19 g/l): 77% | % max. signal (luciferase) ([3]; MgSO4 1.78 g/l): 77% | % max. signal (luciferase) ([3]; MgSO4 2.67 g/l): 100% | % max. signal (luciferase) ([3]; MgSO4 4.00 g/l): 100%

O=P(O)(O)OP(=O)(O)OP(=O)(O)O [NaTPP, sodium tripolyphosphate]
% max. signal (luciferase) ([3]; NaTPP 5.01 mg/l): 54% | % max. signal (luciferase) ([3]; NaTPP 15.8 mg/l): 64% | % max. signal (luciferase) ([3]; NaTPP 50.0 mg/l): 82% | % max. signal (luciferase) ([3]; NaTPP 158 mg/l): 100% | % max. signal (luciferase) ([3]; NaTPP 500 mg/l): 75%

CN1CCc2cc(Cl)c(O)cc2[C@@H](c2ccccc2)C1 [SCH23390]
prevention of agonist-mediated induction (CRE) [4]: prevented

CC(C)C[C@H]1C(=O)N2CCC[C@H]2[C@]2(O)O[C@](NC(=O)[C@@H]3C=C4c5cccc6[nH]c(Br)c(c56)C[C@H]4N(C)C3)(C(C)C)C(=O)N12 [bromocryptin]
change in luciferase expression/activity [2]: did not bring about any significant change in the luciferase activity | luciferase induction at the highest concentration (attributed to cell toxicity or low pH) ([5]; 100 μM bromocryptin): reversal of luciferase induction | activity on luciferase induction ([5]; FIG. 38B): dosage-dependent activity

C[N+](C)(C)CCOC(N)=O [carbachol]
change in luciferase expression/activity [2]: did not bring about any significant change in the luciferase activity

CCCC(=O)Nc1ncnc2c1ncn2[C@@H]1O[C@@H]2COP(=O)(O)O[C@H]2[C@H]1OC(=O)CCC [dibutyryl-cAMP]
change in luciferase expression/activity [2]: increased

NCCc1c[nH]c2ccc(O)cc12 [serotonin]
induction of luciferase activity by receptor agonists in pretest cell line A20 [6]: could not be induced | selectivity of dosage-activity curves [7]: selective for serotonin | induction time up to which luciferase activity increases continuously ([7]; serotonin 1 μM): 6 h | change in luciferase expression/activity [2]: did not bring about any significant change in the luciferase activity

O=C(CCCN1CCC2(CC1)C(=O)NCN2c1ccccc1)c1ccc(F)cc1 [spiperone]
inhibition of the agonistic activity of serotonin ([7]; constant serotonin (1 μg), increasing antagonist, FIG. 32B): able to be inhibited

neurokinin A: neurokinin (Sigma), agonist at neurokinin 2-receptor (HKTDSFVGLM-NH2; ends and bridges not checked; UniProt P20366 98-107, looked up)
induction of luciferase activity by receptor agonists in pretest cell line A20 [6]: could not be induced by any of the three tachykinins

neuromedin K (NMK): neurokinin (Sigma), tachykinin
induction of luciferase activity by receptor agonists in pretest cell line A20 [6]: could not be induced by any of the three tachykinins | relative effectiveness of the neurokinins ([1]; dosage activity curves, FIG. 29A): NKA>neuromedin K (NMK)>substance P (SP)

substance P (SP): neurokinin (Sigma), tachykinin (RPKPQQFFGLM-NH2; ends and bridges not checked; UniProt P20366 58-68, looked up)
induction of luciferase activity by receptor agonists in pretest cell line A20 [6]: could not be induced by any of the three tachykinins
